Data: ChEMBL document CHEMBL5034027, “Synthesis and evaluation of stereoisomers of methylated catechin and epigallocatechin derivatives on modulating P-glycoprotein-mediated multidrug resistance in cancers” (Eur J Med Chem, 2021)
Values belong to the compound of their own block, whether it stands above or below them.

What was measured:
[1] = tested on: P-gp; test: Selectivity index, ratio of IC50 for cytotoxicity against mouse L929 cells to EC50 for inhibition of P-gp in human LCC6MDR cells assessed as reversal of paclitaxel resistance; type: toxicity, cell-based; conditions: L929 cells (cytotoxicity IC50) and LCC6MDR cells (P-gp EC50), probe paclitaxel, read-out: Selectivity Index
[2] = tested on: L929; test: Cytotoxicity against mouse L929 cells assessed as reduction in cell viability incubated for 72 hrs by MTS assay; type: cell-based; conditions: L929, 72 h
[3] = Reversal of P-glycoprotein mediated drug resistance in human LCC6MDR cells assessed as reversal of paclitaxel resistance measured after 5 days by Cell Titer-Glo luminescence assay; type: cell-based; conditions: 120 h
[4] = Reversal of P-glycoprotein mediated drug resistance in human LCC6MDR cells assessed as reversal of Dox resistance measured after 5 days by Cell Titer-Glo luminescence assay; conditions: 120 h
[5] = target: T1, ATP-dependent translocase ABCB1 (Homo sapiens, UniProt P08183); test: Inhibition of P-gp in human LCC6MDR cells assessed as intracellular DOX retention at 2 uM incubated for 60 mins by flow cytometry analysis relative to control; type: cell-based; design: scale not given: the % may be the effect or the level left; conditions: 1 h
T1 sequence (P08183 whole entry): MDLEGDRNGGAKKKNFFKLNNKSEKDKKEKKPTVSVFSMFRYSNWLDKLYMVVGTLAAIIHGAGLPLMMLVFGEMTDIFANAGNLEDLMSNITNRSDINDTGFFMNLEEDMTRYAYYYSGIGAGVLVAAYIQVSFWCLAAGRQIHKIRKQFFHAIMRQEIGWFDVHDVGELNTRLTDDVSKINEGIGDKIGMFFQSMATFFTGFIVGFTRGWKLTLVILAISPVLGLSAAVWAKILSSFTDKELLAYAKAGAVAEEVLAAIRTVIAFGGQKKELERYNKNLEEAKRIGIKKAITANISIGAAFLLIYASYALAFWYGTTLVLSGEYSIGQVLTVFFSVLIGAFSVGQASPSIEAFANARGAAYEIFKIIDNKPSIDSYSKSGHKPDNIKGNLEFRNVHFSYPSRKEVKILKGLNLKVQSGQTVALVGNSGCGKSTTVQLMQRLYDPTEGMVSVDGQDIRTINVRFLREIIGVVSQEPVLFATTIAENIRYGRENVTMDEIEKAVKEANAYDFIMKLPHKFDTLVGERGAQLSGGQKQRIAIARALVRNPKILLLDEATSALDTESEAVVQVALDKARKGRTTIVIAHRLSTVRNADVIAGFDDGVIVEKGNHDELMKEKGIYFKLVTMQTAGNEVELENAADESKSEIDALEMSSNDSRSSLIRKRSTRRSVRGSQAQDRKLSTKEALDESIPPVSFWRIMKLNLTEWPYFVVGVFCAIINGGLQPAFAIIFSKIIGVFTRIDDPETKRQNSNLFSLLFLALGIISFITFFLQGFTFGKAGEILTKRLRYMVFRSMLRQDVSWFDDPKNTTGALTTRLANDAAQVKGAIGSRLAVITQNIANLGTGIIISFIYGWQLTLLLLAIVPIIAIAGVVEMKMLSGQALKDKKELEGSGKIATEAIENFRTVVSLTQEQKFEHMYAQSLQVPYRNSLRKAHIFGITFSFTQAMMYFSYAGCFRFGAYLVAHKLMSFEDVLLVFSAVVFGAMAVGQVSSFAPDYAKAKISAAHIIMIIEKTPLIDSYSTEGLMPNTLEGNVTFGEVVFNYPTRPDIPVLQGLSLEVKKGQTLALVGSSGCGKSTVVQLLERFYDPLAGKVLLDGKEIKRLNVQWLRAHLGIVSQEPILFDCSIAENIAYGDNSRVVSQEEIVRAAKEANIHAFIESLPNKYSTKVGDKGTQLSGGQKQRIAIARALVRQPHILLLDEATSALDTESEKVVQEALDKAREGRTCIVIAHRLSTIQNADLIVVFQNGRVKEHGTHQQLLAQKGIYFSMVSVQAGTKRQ

[6] = target: T1, ATP-dependent translocase ABCB1; test: Inhibition of P-gp in human LCC6MDR cells assessed as intracellular DOX retention at 2 uM incubated for 120 mins by flow cytometry analysis relative to control; type: cell-based; design: scale not given: the % may be the effect or the level left; conditions: 2 h
[7] = target: T1, ATP-dependent translocase ABCB1; test: Inhibition of P-gp in human LCC6MDR cells assessed as intracellular DOX retention at 2 uM incubated for 90 mins by flow cytometry analysis relative to control; type: cell-based; design: scale not given: the % may be the effect or the level left

SMILES: COc1cc(OC)c2c(c1)O[C@@H](c1cc(OC)c(OC)c(OC)c1)[C@H](OC(=O)c1ccc(F)c(NC(=O)c3cc(OC)c(OC)c(OC)c3)c1)C2
selectivity ratio [1]: > 741
IC50 [2]: > 100000 nM
EC50 [3]: 135 nM

SMILES: COc1cc(OC)c2c(c1)O[C@H](c1cc(OC)c(OC)c(OC)c1)[C@@H](OC(=O)c1ccc(F)c(NC(=O)c3ccc(OC)c(OC)c3)c1)C2
EC50 [3]: 171 nM

SMILES: COc1ccc(CCN(C)CCCC(C#N)(c2ccc(OC)c(OC)c2)C(C)C)cc1OC (stereo not given)
EC50 [4]: 254 nM

SMILES: COc1cc(OC)c2c(c1)O[C@H](c1ccc(OC)c(OC)c1)[C@@H](OC(=O)c1ccc(F)c(NC(=O)/C=C/c3cc(OC)c(OC)c(OC)c3)c1)C2
selectivity ratio [1]: > 563
IC50 [2]: > 100000 nM
EC50 [3]: 178 nM

SMILES: COc1cc(OC)c2c(c1)O[C@H](c1cc(OC)c(OC)c(OC)c1)[C@H](OC(=O)c1ccc(F)c(NC(=O)c3ccc(OC)c(OC)c3)c1)C2
EC50 [3]: 159 nM

SMILES: COc1cc(OC)c2c(c1)O[C@H](c1cc(OC)c(OC)c(OC)c1)[C@H](OC(=O)c1ccc(F)c(NC(=O)c3cc(OC)c(OC)c(OC)c3)c1)C2
EC50 [3]: 214 nM

SMILES: O=C(O[C@@H]1Cc2c(O)cc(O)cc2O[C@@H]1c1cc(O)c(O)c(O)c1)c1cc(O)c(O)c(O)c1 [EPIGALOCATECHIN GALLATE]
EC50 [3]: > 1000 nM

Activity [5]: 87%
Activity [6]: 90%
Activity [7]: 89%
SMILES: COc1cc(OC)c2c(c1)O[C@H](c1ccc(OC)c(OC)c1)[C@@H](OC(=O)c1ccc(F)c(NC(=O)c3cc(OC)c(OC)c(OC)c3)c1)C2

SMILES: COc1cc(OC)c2c(c1)O[C@H](c1cc(OC)c(OC)c(OC)c1)[C@@H](OC(=O)c1ccc(F)c(NC(=O)c3cc(OC)c(OC)c(OC)c3)c1)C2
EC50 [3]: 140 nM
